Results published in US8673903B2, “Substituted 8-alkoxy-2-aminotetralin derivatives, and use thereof” (Bayer Intellectual Property GmbH, priority 2010, dated 2014).

How the values were obtained:
[1] = target: T1, soluble guanylate cyclase (sGC) (Rattus norvegicus, UniProt P20595); assay: Stimulation of sGC enzyme activity (PPi luminescence detection); assay type: biochemical; conditions: for EC50: read-out: EC50 (concentration at 50% of maximum efficacy), activating action at the sGC enzyme in vitro
T1 construct: made in house
T1 sequence (P20595 1-619): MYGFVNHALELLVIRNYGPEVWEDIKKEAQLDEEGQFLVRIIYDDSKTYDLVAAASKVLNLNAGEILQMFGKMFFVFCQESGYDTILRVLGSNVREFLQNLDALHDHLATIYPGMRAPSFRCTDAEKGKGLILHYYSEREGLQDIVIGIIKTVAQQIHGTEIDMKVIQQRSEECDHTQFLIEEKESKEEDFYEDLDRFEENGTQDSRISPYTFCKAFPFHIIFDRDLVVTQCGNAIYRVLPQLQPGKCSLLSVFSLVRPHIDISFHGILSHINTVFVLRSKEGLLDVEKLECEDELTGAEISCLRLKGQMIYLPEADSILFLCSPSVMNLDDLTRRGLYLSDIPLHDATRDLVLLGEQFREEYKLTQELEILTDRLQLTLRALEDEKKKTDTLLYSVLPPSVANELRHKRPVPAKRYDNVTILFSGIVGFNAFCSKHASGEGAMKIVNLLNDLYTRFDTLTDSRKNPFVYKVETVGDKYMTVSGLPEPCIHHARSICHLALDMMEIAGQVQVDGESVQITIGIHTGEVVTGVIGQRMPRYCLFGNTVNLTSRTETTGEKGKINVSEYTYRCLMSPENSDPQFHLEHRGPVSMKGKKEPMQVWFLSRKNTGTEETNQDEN
T1 sequence (P19686 1-690 partner): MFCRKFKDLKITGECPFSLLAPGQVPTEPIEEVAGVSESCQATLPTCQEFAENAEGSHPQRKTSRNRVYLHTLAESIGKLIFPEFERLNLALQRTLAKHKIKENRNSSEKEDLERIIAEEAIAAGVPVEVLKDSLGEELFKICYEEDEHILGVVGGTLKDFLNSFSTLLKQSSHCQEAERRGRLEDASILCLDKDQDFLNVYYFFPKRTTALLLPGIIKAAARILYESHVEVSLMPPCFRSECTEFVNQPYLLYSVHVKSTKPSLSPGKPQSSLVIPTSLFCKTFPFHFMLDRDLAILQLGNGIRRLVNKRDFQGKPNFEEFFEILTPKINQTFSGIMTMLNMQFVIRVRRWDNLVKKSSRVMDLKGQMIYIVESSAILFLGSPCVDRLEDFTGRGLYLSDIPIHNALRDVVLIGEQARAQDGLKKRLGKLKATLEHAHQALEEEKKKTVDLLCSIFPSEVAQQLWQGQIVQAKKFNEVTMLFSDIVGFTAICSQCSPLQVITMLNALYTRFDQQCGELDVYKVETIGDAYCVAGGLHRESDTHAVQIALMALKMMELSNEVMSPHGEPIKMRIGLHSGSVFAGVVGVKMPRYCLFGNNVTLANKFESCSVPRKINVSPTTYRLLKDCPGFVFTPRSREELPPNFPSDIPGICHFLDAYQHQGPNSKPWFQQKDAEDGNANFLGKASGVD
Procedure: B-2. Stimulation of sGC Enzyme Activity
Soluble guanylate cyclase (sGC) converts on stimulation GTP into cGMP and pyrophosphate (PPi). PPi is detected with the aid of the assay described below. The signal produced in the assay increases as the reaction progresses and serves as a measure of the sGC enzyme activity under the given stimulation.
To carry out the assay, 29 μl of enzyme solution [0-10 nM soluble guanylate cyclase (prepared according to Honicka et al., J. Mol. Med. 77, 14-23 (1999)) in 50 mM TEA, 2 mM MgCl2, 0.1% BSA (fraction V), 0.005% Brij®, pH 7.5] are initially introduced into a microplate, and 1 μl of the substance to be tested (as a serially diluted solution in DMSO) is added. The mixture is incubated at room temperature for 10 min. Then 20 μl of detection mix [1.2 nM Firefly Luciferase (Photinus pyralis luciferase, Promega), 29 μM dehydroluciferin (prepared according to Bitler & McElroy, Arch. Biochem. Biophys. 72, 358 (1957)), 122 μM luciferin (Promega), 153 μM ATP (Sigma) and 0.4 mM DTT (Sigma) in 50 mM TEA, 2 mM MgCl2, 0.1% BSA (fraction V), 0.005% Brij®, pH 7.5] are added. The enzyme reaction is started by adding 20 μl of substrate solution [1.25 mM guanosine 5′-triphosphate (Sigma) in 50 mM TEA, 2 mM MgCl2, 0.1% BSA (fraction V), 0.005% Brij®, pH 7.5] and measured continuously in a luminometer. The extent of the stimulation by the substance to be tested can be determined relative to the signal of the unstimulated reaction.
The activation of heme-free guanylate cyclase is examined by addition of 25 μM of 1H-1,2,4-oxadiazolo[4,3-a]quinoxalin-1-one (ODQ) to the enzyme solution and subsequent incubation for 30 minutes and compared to the stimulation of the native enzyme.

[2] = target: T2, soluble guanylate cyclase (sGC), recombinant guanylate cyclase reporter cell line (CHO) (Rattus norvegicus, UniProt P20595); assay: Action at a recombinant guanylate cyclase reporter cell line (CHO reporter cell); assay type: cell-based
T2 construct: expressed in transfected cells; host or cells: CHO
T2 sequence (P20595 1-619): T1 sequence (P20595 1-619)
T2 sequence (P19686 1-690 partner): T1 sequence (P19686 1-690 partner)
Procedure: B-1. Action at a Recombinant Guanylate Cyclase Reporter Cell Line
The cellular action of the compounds according to the invention is determined at a recombinant guanylate cyclase reporter cell line, as described in F. Wunder et al., Anal. Biochem. 339, 104-112 (2005).

[3] = tested on: rabbit saphenous artery rings; assay: Vasorelaxant effect in vitro on phenylephrine-contracted saphenous artery rings; set-up: species or system Rabbits; conditions: Oryctolagus cuniculus, contraction induced by phenylephrine
Procedure: B-3. Vasorelaxant Effect In Vitro:
Rabbits are anesthetized and sacrificed by intravenous injection of thiopental sodium (about 50 mg/kg) and exsanguinated. The saphenous artery is removed and divided into rings 3 mm wide. The rings are mounted singly on in each case a pair of triangular hooks open at the end and made of 0.3 mm-thick special wire (Remanium®). Each ring is placed under an initial tension in 5 ml organ baths with Krebs-Henseleit solution which is at 37° C., is gassed with carbogen and has the following composition: NaCl 119 mM; KCl 4.8 mM; CaCl2×2 H2O 1 mM; MgSO4×7 H2O 1.4 mM; KH2PO4 1.2 mM; NaHCO3 25 mM; glucose 10 mM; bovine serum albumin 0.001%. The force of contraction is detected with Statham UC2 cells, amplified and digitized via A/D converters (DAS-1802 HC, Keithley Instruments, Munich) and recorded in parallel on chart recorders. Contractions are induced by addition of phenylephrine.
After several (generally 4) control cycles, the substance to be investigated is added in each further run in increasing dosage, and the level of the contraction achieved under the influence of the test substance is compared with the level of the contraction reached in the last preceding run. The concentration necessary to reduce the contraction reached in the preceding control by 50% is calculated from this (IC50). The standard application volume is 5 μl. The proportion of DMSO in the bath solution corresponds to 0.1%.

SMILES | MEC (minimum effective concentration), activating action at the sGC enzyme in vitro [1] [nM] | MEC (minimum effective concentration), sGC-activating activity in the CHO reporter cell in vitro [2] [nM] | EC50 [1] [µM] | IC50 [3] [µM]
O=C(O)CCCCN(Cc1ccc(C(=O)O)cc1)C1CCc2cccc(OCCCN3CCCC3=O)c2C1 (centres unmarked) [Example 7] | 830 |  |  | 
O=C(O)CCCCN(Cc1ccc(C(=O)O)cc1)C1CCc2cccc(OCc3ccc(CCc4ccccc4)cc3)c2C1 (centres unmarked) [Example 4] | 0.7 | 3.0 | 0.0075 | 
CC(C)(C)c1nc(COc2cccc3c2CC(N(CCCCC(=O)O)Cc2ccc(C(=O)O)cc2)CC3)no1 (centres unmarked) [Example 12] | 205 |  |  | 
O=C(O)CCCCN(Cc1ccc(C(=O)O)cc1)C1CCc2cccc(OCc3cccc(F)c3)c2C1 (centres unmarked) [Example 11] | 200 | 300 |  | 
O=C(O)CCCCN(Cc1ccc(C(=O)O)cc1)C1CCc2cccc(OCc3ccc(CCc4ccccc4)cc3)c2C1 (centres unmarked) [Example 6] |  |  |  | 4.38
CC(C)(C)c1ccc(COc2cccc3c2CC(N(CCCCC(=O)O)Cc2ccc(C(=O)O)cc2)CC3)cc1 (racemic) [Example 1, rac-4-{[{8-[(4-tert-Butylbenzyl)oxy]-1,2,3,4-tetrahydronaphthalen-2-yl}(4-carboxybutyl)amino]-methyl}benzoic acid] | 0.12 | 0.3 | 0.0085 | 0.113
O=C(O)CCCCN(Cc1ccc(C(=O)O)cc1)C1CCc2cccc(OCCCN3CCOCC3=O)c2C1 (centres unmarked) [Example 9] | 700 |  |  | 
O=C(O)CCCCN(Cc1ccc(C(=O)O)cc1)C1CCc2cccc(OCc3ccc(CCc4ccccc4)cc3)c2C1 (single isomer, unassigned) [Example 5] | 0.13 | 0.3 | 0.0014 | 9.14
CC(C)CCCCOc1cccc2c1CC(N(CCCCC(=O)O)Cc1ccc(C(=O)O)cc1)CC2 (centres unmarked) [Example 10] | 48 | 30 | 0.62 | 
